Measurements published in article PMC7933434, “Entropy-driven binding of gut bacterial β-glucuronidase inhibitors ameliorates irinotecan-induced toxicity” (Communications Biology, 2021).
Where “and” joins values, the source holds several entries; their conditions need not be identical. Identical values can stand only once. Entries after “also recorded” stand apart in the source; their conditions may differ.

Legend:
[1] = test system: GM637 non-cancerous human fibroblasts; assay: In vitro cytotoxicity, [3H]thymidine incorporation, GM637; format: cell-based; details: GM637 cells; 0.001–100 μM for 24 h
HsGUS (human GUS) = target: T1, HsGUS (human GUS) (Homo sapiens, UniProt P08236); assay: GUS inhibition assay, hydrolysis of 4-methylumbelliferyl-β-glucuronide, HsGUS; format: biochemical; parameters: GUS activity (hydrolysis rate of MUG): unit not given here
T1 construct: HsGUS was prepared as described[37]; made in house
T1 sequence (P08236 23-651): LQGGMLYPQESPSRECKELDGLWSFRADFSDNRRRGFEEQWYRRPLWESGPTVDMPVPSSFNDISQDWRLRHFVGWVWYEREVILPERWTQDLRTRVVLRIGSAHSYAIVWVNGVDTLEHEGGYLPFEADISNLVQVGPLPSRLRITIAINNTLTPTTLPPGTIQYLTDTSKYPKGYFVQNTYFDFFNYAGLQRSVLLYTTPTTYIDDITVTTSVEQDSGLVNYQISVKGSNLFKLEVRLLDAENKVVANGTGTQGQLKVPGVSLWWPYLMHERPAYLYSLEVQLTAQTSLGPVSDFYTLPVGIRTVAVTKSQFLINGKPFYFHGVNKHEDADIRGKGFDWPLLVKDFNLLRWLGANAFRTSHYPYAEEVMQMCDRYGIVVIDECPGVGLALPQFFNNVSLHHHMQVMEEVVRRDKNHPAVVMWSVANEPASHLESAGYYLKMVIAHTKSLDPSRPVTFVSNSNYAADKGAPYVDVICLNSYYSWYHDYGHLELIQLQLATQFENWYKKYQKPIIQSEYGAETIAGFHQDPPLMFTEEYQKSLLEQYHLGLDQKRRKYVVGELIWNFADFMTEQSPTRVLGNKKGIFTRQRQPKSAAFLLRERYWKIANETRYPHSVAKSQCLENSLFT

[2] = test system: H184B5F5/M10 non-cancerous human mammary epithelial cells; assay: In vitro cytotoxicity, [3H]thymidine incorporation, H184B5F5/M10; format: cell-based; details: 0.001–100 μM for 24 h
BALB/c mice [3] = assay: In vivo diarrhea test (CPT-11); parameters: species or system mouse; details: BALB/c mice, 10 days
[4] = test system: intestinal bacterial GUSs; assay: In vivo imaging of GUS activity (FDGiCu probe); parameters: species or system mouse; details: BALB/c mice; oral gavage of inhibitor, then 500 µg FDGiCu intravenously
Procedure: . […] The mice were then sacrificed and the intestines removed. […] In addition, we performed real-time in vivo gastrointestinal inhibition of bacterial GUSs using whole-body in vivo imaging (Fig. 4a and Supplementary Figs. 11, 12). The mice were gavaged in the same manner as described above. Following the final gavage, 500 µg of FDGiCu (fluorescein-di-β-D-glucuronide as a non-fluorescent probe) was injected intravenously. Upon digestion by intestinal bacterial GUSs, FDGiCu is hydrolyzed to produce fluorescein (as the hydrolyzed product) that can be detected as fluorescence in the intestinal region. […]. Mice were treated for 10 days. […]
Mice were given 3 via oral gavage. […] The hydrolysis product (fluorescein) generated in the gut was quantified over a 2 h period by in vivo imaging (excitation 465 nm, emission 520 nm). The maximum fluorescein fluorescence was observed 60 min after injection of vehicle control. At 2 h post injection, most of the FDGiCu has been excreted and thus fluorescence is reduced. The region of interest (ROI) was analyzed with Living Image Software. b Effect of inhibitor 3 to protect against diarrhea caused by CPT-11. Diarrhea severity was scored as described in methods. […] The intensity of hydrolyzed fluorescein was assessed by in vivo imaging system (Caliper Life Sciences) and quantified as GUS activity. […]

BALB/c mice [5] = assay: Colon histology (hematoxylin and eosin) after oral gavage; format: in vivo, mouse; details: female BALB/c mice; oral gavage for 5 days; 3 at 37.5 mg per kg body weight, ASN03273363 at 65 mg

In the case of `CCCCCC[C@@H]1NC[C@@H](O)[C@H](O)[C@H]1C(=O)O` [Inhibitor 3, C6-hexyl UIFG], the cytotoxicity [1] is reported as “No cytotoxicity was evident”, the Ki (HsGUS (human GUS); HsGUS, 50 mM sodium acetate pH 4.5, 37 °C) is reported as 5.3 ± 0.9 µM and the “GUS activity (hydrolysis rate of MUG)” value (HsGUS (human GUS); [Inhibitor 3] =0.15625 μM, [MUG] 0.1 mM) is reported as 771.278 and 806.238. The “GUS activity (hydrolysis rate of MUG)” value (HsGUS (human GUS); [Inhibitor 3] =0.15625 μM, [MUG] 0.2 mM) was 1372.81 and 1460.04, the “GUS activity (hydrolysis rate of MUG)” value (HsGUS (human GUS); [Inhibitor 3] =0.15625 μM, [MUG] 0.4 mM) was 2346.7 and 2406.16 and the “GUS activity (hydrolysis rate of MUG)” value (HsGUS (human GUS); [Inhibitor 3] =0.15625 μM, [MUG] 0.6 mM) was 2899.99 and 3077.74. The “GUS activity (hydrolysis rate of MUG)” value (HsGUS (human GUS); [Inhibitor 3] =0.15625 μM, [MUG] 0.8 mM) was 3398.11 and 3693.06, the “GUS activity (hydrolysis rate of MUG)” value (HsGUS (human GUS); [Inhibitor 3] =0.15625 μM, [MUG] 1.2 mM) was 4234.64 and 3962.7 and the “GUS activity (hydrolysis rate of MUG)” value (HsGUS (human GUS); [Inhibitor 3] =0.15625 μM, [MUG] 1.6 mM) was 4964.29 and 4569.67. The “GUS activity (hydrolysis rate of MUG)” value (HsGUS (human GUS); [Inhibitor 3] =0.15625 μM, [MUG] 2 mM) was 5606.01 and 4919.37, the “GUS activity (hydrolysis rate of MUG)” value (HsGUS (human GUS); [Inhibitor 3] =0.3125 μM, [MUG] 0.1 mM) was 857.043 and 831.938 and the “GUS activity (hydrolysis rate of MUG)” value (HsGUS (human GUS); [Inhibitor 3] =0.3125 μM, [MUG] 0.2 mM) was 1433.02 and 1411.42. The “GUS activity (hydrolysis rate of MUG)” value (HsGUS (human GUS); [Inhibitor 3] =0.3125 μM, [MUG] 0.4 mM) was 2271.61 and 2263.8, the “GUS activity (hydrolysis rate of MUG)” value (HsGUS (human GUS); [Inhibitor 3] =0.3125 μM, [MUG] 0.6 mM) was 2953.53 and 2923.55 and the “GUS activity (hydrolysis rate of MUG)” value (HsGUS (human GUS); [Inhibitor 3] =0.3125 μM, [MUG] 0.8 mM) was 3510.33 and 3469.47. For the same compound, the “GUS activity (hydrolysis rate of MUG)” value (HsGUS (human GUS); [Inhibitor 3] =0.3125 μM, [MUG] 1.2 mM) was 4268.51 and 4308.7, the “GUS activity (hydrolysis rate of MUG)” value (HsGUS (human GUS); [Inhibitor 3] =0.3125 μM, [MUG] 1.6 mM) was 4927.41 and 4670.47 and the “GUS activity (hydrolysis rate of MUG)” value (HsGUS (human GUS); [Inhibitor 3] =0.3125 μM, [MUG] 2 mM) was 5186.78 and 5296.26. The “GUS activity (hydrolysis rate of MUG)” value (HsGUS (human GUS); [Inhibitor 3] =0.625 μM, [MUG] 0.1 mM) was 778.258 and 858.783, the “GUS activity (hydrolysis rate of MUG)” value (HsGUS (human GUS); [Inhibitor 3] =0.625 μM, [MUG] 0.2 mM) was 1379.09 and 1422.22 and the “GUS activity (hydrolysis rate of MUG)” value (HsGUS (human GUS); [Inhibitor 3] =0.625 μM, [MUG] 0.4 mM) was 2137.64 and 2310.12. The “GUS activity (hydrolysis rate of MUG)” value (HsGUS (human GUS); [Inhibitor 3] =0.625 μM, [MUG] 0.6 mM) was 2842.46 and 2976.65, the “GUS activity (hydrolysis rate of MUG)” value (HsGUS (human GUS); [Inhibitor 3] =0.625 μM, [MUG] 0.8 mM) was 3348.75 and 3351.68 and the “GUS activity (hydrolysis rate of MUG)” value (HsGUS (human GUS); [Inhibitor 3] =0.625 μM, [MUG] 1.2 mM) was 4293.66 and 3890.63. The “GUS activity (hydrolysis rate of MUG)” value (HsGUS (human GUS); [Inhibitor 3] =0.625 μM, [MUG] 1.6 mM) was 4573.95 and 4600.88, the “GUS activity (hydrolysis rate of MUG)” value (HsGUS (human GUS); [Inhibitor 3] =0.625 μM, [MUG] 2 mM) was 5372.6 and 4990.92 and the “GUS activity (hydrolysis rate of MUG)” value (HsGUS (human GUS); [Inhibitor 3] =1.25 μM, [MUG] 0.1 mM) was 717.04 and 716.519. The “GUS activity (hydrolysis rate of MUG)” value (HsGUS (human GUS); [Inhibitor 3] =1.25 μM, [MUG] 0.2 mM) was 1240.56 and 1222.88, the “GUS activity (hydrolysis rate of MUG)” value (HsGUS (human GUS); [Inhibitor 3] =1.25 μM, [MUG] 0.4 mM) was 2023.29 and 2076.53 and the “GUS activity (hydrolysis rate of MUG)” value (HsGUS (human GUS); [Inhibitor 3] =1.25 μM, [MUG] 0.6 mM) was 2757.57 and 2739.69. For the same compound, the “GUS activity (hydrolysis rate of MUG)” value (HsGUS (human GUS); [Inhibitor 3] =1.25 μM, [MUG] 0.8 mM) was 3062.28 and 3123.61, the “GUS activity (hydrolysis rate of MUG)” value (HsGUS (human GUS); [Inhibitor 3] =1.25 μM, [MUG] 1.2 mM) was 3822.55 and 3852.43 and the “GUS activity (hydrolysis rate of MUG)” value (HsGUS (human GUS); [Inhibitor 3] =1.25 μM, [MUG] 1.6 mM) was 4324.26 and 4371.34. For the same compound, the “GUS activity (hydrolysis rate of MUG)” value (HsGUS (human GUS); [Inhibitor 3] =1.25 μM, [MUG] 2 mM) was 5149.01 and 5020.2, the “GUS activity (hydrolysis rate of MUG)” value (HsGUS (human GUS); [Inhibitor 3] =2.5 μM, [MUG] 0.1 mM) was 605.275 and 587.992 and the “GUS activity (hydrolysis rate of MUG)” value (HsGUS (human GUS); [Inhibitor 3] =2.5 μM, [MUG] 0.2 mM) was 1017.03 and 1026.81. For the same compound, the “GUS activity (hydrolysis rate of MUG)” value (HsGUS (human GUS); [Inhibitor 3] =2.5 μM, [MUG] 0.4 mM) was 1798.51 and 1698.98, the “GUS activity (hydrolysis rate of MUG)” value (HsGUS (human GUS); [Inhibitor 3] =2.5 μM, [MUG] 0.6 mM) was 2384.66 and 2417.17 and the “GUS activity (hydrolysis rate of MUG)” value (HsGUS (human GUS); [Inhibitor 3] =2.5 μM, [MUG] 0.8 mM) was 2879.78 and 2802.26. The “GUS activity (hydrolysis rate of MUG)” value (HsGUS (human GUS); [Inhibitor 3] =2.5 μM, [MUG] 1.2 mM) was 3545.79 and 3649.82, the “GUS activity (hydrolysis rate of MUG)” value (HsGUS (human GUS); [Inhibitor 3] =2.5 μM, [MUG] 1.6 mM) was 4144.07 and 4075.98 and the “GUS activity (hydrolysis rate of MUG)” value (HsGUS (human GUS); [Inhibitor 3] =2.5 μM, [MUG] 2 mM) was 4744.38 and 4849.33. For the same compound, the “GUS activity (hydrolysis rate of MUG)” value (HsGUS (human GUS); [Inhibitor 3] =3.75 μM, [MUG] 0.1 mM) was 572.514 and 563.082, the “GUS activity (hydrolysis rate of MUG)” value (HsGUS (human GUS); [Inhibitor 3] =3.75 μM, [MUG] 0.2 mM) was 956.564 and 935.374 and the “GUS activity (hydrolysis rate of MUG)” value (HsGUS (human GUS); [Inhibitor 3] =3.75 μM, [MUG] 0.4 mM) was 1708.56 and 1611.49. The “GUS activity (hydrolysis rate of MUG)” value (HsGUS (human GUS); [Inhibitor 3] =3.75 μM, [MUG] 0.6 mM) was 2310.6 and 2247.59, the “GUS activity (hydrolysis rate of MUG)” value (HsGUS (human GUS); [Inhibitor 3] =3.75 μM, [MUG] 0.8 mM) was 2878.65 and 2643.42 and the “GUS activity (hydrolysis rate of MUG)” value (HsGUS (human GUS); [Inhibitor 3] =3.75 μM, [MUG] 1.2 mM) was 3484.96 and 3524. For the same compound, the “GUS activity (hydrolysis rate of MUG)” value (HsGUS (human GUS); [Inhibitor 3] =3.75 μM, [MUG] 1.6 mM) was 3945.8 and 4134.14, the “GUS activity (hydrolysis rate of MUG)” value (HsGUS (human GUS); [Inhibitor 3] =3.75 μM, [MUG] 2 mM) was 4453.48 and 4566.78 and the cytotoxicity [2] was “No cytotoxicity was evident”. For the same compound, the diarrhea (BALB/c mice [3]; CPT-11 30 mg per kg daily with inhibitor 3 5.8 µg orally twice per day) was “diarrhea was significantly suppressed; also recorded: significantly reduced diarrhea”, the diarrhea (BALB/c mice [3]; inhibitor 3 only, 5.8 µg given orally twice per day) was “neither the negative control nor inhibitor 3 caused diarrhea” and the “fluorescein fluorescence in the intestinal region (gut bacterial GUS activity)” value [4] was “Reduced fluorescence”. The “health of the epithelial layer and intestinal glandular structure (hematoxylin and eosin staining)” value (BALB/c mice [5]) was “neither compound affected the health of the epithelial layer or the intestinal glandular structure”.
